In ChEMBL document CHEMBL4028801, “A multifactorial approach to hepatobiliary transporter assessment enables improved therapeutic compound development” (Toxicol Sci, 2013):
Counter-ions that a name gives are not always drawn.

How the values were obtained:
[1] = target: Bile salt export pump (Homo sapiens, UniProt O95342); test: Inhibition of human BSEP overexpressed in Sf9 cell membrane vesicles assessed as uptake of [3H]-taurocholate in presence of ATP measured after 15 to 20 mins by membrane vesicle transport assay; format: ADME, cell-based
Chain of Bile salt export pump (O95342 whole entry): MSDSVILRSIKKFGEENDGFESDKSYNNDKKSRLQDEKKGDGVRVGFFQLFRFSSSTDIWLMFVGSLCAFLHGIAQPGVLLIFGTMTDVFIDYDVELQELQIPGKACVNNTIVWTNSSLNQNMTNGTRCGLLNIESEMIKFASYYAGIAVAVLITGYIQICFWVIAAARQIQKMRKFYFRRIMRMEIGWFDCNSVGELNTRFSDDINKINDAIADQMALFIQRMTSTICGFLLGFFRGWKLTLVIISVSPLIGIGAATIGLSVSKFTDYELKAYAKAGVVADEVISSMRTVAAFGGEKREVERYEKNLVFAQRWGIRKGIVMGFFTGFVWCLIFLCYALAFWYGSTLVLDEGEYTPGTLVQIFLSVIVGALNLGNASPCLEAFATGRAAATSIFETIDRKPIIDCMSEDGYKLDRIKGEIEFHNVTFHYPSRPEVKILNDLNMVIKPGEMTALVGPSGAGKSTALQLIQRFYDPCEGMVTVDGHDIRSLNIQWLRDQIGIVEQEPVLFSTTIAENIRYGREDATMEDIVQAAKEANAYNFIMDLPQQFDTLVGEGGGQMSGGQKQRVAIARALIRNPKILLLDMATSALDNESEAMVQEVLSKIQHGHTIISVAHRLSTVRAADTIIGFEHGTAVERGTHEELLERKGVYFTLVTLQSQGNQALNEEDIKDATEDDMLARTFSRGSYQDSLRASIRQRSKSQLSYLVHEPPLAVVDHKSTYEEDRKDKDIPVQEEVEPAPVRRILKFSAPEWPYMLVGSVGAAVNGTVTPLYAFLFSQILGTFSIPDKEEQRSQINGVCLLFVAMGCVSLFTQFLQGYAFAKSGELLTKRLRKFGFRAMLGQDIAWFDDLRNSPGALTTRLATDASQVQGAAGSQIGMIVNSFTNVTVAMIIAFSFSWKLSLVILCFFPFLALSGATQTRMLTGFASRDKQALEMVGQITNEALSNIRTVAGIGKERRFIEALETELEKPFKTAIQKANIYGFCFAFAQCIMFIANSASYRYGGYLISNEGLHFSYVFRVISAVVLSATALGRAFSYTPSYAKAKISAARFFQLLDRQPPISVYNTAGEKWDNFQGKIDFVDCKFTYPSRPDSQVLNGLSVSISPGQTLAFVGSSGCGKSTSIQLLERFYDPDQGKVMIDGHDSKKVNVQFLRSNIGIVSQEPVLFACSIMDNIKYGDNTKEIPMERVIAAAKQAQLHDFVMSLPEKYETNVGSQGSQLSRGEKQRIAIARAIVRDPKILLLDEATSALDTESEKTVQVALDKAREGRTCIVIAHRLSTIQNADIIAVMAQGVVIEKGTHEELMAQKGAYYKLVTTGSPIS

[2] = target: ATP-binding cassette sub-family C member 2 (Homo sapiens, UniProt Q92887); test: Inhibition of human MRP2 overexpressed in Sf9 cell membrane vesicles assessed as uptake of [3H]-estradiol-17beta-D-glucuronide in presence of ATP and GSH measured after 20 mins by membrane vesicle transport assay
Chain of ATP-binding cassette sub-family C member 2 (Q92887 whole entry): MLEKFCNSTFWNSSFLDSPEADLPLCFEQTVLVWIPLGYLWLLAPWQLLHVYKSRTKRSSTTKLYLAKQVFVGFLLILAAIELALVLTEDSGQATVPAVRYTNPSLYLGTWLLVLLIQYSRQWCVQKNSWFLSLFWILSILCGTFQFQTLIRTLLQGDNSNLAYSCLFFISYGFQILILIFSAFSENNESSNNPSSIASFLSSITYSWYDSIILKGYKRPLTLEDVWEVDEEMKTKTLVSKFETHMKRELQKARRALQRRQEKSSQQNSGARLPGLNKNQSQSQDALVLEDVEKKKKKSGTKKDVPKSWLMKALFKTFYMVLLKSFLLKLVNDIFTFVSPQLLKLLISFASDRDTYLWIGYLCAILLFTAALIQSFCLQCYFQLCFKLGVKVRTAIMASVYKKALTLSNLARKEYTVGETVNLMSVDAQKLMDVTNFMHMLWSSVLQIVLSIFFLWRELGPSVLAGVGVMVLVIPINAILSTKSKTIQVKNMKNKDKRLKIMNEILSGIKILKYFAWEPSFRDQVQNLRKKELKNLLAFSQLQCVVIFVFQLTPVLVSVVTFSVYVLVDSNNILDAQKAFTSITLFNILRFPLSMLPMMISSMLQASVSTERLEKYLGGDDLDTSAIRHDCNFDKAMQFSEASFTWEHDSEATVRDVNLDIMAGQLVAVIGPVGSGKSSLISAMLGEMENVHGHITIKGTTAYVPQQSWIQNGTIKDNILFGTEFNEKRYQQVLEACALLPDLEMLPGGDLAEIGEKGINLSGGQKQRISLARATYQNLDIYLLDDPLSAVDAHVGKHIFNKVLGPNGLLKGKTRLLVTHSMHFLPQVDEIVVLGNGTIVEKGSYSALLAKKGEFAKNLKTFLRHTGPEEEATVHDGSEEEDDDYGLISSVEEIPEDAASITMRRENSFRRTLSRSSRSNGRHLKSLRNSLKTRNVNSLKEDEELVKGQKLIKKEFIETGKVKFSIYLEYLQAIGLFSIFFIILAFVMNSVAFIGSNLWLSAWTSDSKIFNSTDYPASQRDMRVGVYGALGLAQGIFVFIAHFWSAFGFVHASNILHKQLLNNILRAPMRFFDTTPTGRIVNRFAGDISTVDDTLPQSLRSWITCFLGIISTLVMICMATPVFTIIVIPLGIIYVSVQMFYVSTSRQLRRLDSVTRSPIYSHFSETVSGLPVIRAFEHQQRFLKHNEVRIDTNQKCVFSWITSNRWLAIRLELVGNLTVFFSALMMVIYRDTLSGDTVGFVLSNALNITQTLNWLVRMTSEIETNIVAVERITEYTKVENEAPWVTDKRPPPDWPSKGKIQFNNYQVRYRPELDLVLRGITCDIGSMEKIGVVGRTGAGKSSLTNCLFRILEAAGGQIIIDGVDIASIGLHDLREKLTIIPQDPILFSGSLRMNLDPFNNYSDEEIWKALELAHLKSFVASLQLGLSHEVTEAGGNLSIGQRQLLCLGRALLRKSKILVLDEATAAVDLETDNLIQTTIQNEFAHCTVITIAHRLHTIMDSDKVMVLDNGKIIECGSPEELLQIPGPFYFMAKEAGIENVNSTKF

[3] = target: ATP-binding cassette sub-family C member 3 (Homo sapiens, UniProt O15438); test: Inhibition of human MRP3 overexpressed in Sf9 insect cell membrane vesicles assessed as uptake of [3H]-estradiol-17beta-D-glucuronide in presence of ATP and GSH measured after 10 mins by membrane vesicle transport assay; format: ADME, cell-based
Chain of ATP-binding cassette sub-family C member 3 (O15438 whole entry): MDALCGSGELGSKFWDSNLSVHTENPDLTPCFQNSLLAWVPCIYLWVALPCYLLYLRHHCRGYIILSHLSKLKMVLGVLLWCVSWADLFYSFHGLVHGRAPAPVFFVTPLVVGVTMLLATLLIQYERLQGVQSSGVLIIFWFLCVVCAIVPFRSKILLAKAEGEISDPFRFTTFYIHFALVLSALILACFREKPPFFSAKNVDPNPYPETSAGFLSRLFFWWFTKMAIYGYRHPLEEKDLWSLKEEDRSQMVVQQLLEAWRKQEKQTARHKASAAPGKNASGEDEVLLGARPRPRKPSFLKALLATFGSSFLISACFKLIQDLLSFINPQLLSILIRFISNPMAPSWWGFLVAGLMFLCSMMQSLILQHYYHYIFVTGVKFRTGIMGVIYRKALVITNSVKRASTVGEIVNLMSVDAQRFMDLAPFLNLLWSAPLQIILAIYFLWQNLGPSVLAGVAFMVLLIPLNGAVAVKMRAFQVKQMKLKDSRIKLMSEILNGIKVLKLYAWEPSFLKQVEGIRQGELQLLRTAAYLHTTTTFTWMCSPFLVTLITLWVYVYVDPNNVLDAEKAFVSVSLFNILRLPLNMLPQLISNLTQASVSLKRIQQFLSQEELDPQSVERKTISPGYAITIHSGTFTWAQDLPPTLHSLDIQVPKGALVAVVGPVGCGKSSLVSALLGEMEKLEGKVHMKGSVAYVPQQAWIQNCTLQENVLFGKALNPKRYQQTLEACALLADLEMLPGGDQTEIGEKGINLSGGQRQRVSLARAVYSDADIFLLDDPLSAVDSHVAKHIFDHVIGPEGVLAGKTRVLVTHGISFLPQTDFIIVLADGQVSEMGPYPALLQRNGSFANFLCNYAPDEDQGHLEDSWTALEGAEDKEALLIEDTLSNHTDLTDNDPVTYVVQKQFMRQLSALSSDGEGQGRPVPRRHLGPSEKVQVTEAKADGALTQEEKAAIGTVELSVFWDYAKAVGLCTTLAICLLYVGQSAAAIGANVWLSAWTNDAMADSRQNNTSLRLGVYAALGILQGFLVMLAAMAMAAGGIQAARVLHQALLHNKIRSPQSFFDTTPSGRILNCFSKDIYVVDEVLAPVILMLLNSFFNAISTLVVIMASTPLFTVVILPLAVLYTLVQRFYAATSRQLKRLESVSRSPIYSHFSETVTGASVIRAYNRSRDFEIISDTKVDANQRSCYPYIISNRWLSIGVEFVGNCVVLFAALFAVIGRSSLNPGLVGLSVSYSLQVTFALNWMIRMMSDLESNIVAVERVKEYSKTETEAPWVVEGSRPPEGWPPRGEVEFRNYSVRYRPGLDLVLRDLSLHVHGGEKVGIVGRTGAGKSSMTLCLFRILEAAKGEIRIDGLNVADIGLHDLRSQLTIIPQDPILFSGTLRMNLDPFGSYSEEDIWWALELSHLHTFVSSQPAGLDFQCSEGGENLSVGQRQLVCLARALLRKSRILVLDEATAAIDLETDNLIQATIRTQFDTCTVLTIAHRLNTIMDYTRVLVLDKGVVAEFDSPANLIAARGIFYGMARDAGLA

[4] = target: T1, ATP-binding cassette sub-family C member 4 (Homo sapiens, UniProt O15439); test: Inhibition of human MRP4 overexpressed in Sf9 cell membrane vesicles assessed as uptake of [3H]-estradiol-17beta-D-glucuronide in presence of ATP and GSH measured after 20 mins by membrane vesicle transport assay; format: ADME, cell-based
T1 sequence (O15439 whole entry): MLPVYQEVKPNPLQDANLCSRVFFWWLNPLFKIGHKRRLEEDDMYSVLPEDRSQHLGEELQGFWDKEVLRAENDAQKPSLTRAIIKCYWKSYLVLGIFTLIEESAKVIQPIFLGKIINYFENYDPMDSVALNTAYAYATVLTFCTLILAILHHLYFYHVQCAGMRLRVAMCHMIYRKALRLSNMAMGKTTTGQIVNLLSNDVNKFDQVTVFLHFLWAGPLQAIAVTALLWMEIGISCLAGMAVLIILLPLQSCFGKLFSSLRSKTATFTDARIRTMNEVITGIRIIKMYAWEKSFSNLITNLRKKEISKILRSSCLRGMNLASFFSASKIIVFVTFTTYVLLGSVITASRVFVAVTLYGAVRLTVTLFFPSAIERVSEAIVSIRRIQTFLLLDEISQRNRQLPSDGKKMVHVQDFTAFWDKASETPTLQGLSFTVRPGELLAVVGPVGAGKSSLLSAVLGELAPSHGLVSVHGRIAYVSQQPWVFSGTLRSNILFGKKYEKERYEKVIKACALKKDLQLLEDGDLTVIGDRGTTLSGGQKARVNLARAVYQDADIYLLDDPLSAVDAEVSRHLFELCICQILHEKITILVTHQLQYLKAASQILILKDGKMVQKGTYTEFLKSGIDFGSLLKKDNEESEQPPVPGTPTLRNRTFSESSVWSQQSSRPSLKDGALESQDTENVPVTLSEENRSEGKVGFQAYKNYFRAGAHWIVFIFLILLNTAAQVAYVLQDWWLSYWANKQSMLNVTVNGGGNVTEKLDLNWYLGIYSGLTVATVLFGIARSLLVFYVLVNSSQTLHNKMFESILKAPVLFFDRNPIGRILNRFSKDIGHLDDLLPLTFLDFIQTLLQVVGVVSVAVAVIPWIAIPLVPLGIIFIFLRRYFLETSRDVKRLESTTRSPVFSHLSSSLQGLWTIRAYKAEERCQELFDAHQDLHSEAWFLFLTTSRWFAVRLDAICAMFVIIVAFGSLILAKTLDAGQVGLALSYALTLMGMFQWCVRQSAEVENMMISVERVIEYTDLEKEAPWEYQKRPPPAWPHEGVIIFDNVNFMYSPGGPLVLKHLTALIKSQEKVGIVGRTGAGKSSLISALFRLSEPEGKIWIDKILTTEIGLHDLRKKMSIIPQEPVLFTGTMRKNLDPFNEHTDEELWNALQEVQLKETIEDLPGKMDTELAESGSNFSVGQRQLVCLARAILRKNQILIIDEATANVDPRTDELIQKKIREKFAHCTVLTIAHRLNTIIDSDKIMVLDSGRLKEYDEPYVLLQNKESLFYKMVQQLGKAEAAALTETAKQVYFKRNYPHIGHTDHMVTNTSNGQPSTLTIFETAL

Structure (SMILES) | IC50 [1] | IC50 [2] | IC50 [3] | IC50 [4]
O=C(O[C@@H]1C[C@@H]2C[C@H]3C[C@H](C1)N2CC3=O)c1c[nH]c2ccccc12 | > 133 µM | > 133 µM | > 133 µM | > 133 µM
OCCN1CCN(CCCN2c3ccccc3Sc3ccc(Cl)cc32)CC1 [PERPHENAZINE] | > 133 µM | > 133 µM | > 133 µM | > 133 µM
COc1cc([C@@H]2c3cc4c(cc3[C@@H](O[C@@H]3O[C@@H]5CO[C@@H](C)O[C@H]5[C@H](O)[C@H]3O)[C@H]3COC(=O)[C@H]23)OCO4)cc(OC)c1OP(=O)(O)O [ETOPOSIDE PHOSPHATE] | > 133 µM | > 133 µM | > 133 µM | > 133 µM
COc1ccc(-c2ccc3cc(C(=O)O)ccc3c2)cc1C12CC3CC(CC(C3)C1)C2 | > 133 µM | > 133 µM | > 133 µM | > 133 µM
CN(C)CCC[C@@]1(c2ccc(F)cc2)OCc2cc(C#N)ccc21 [ESCITALOPRAM OXALATE] | > 133 µM | > 133 µM | > 133 µM | > 133 µM
COc1ccc2cc([C@H](C)C(=O)O)ccc2c1 [NAPROXEN] | > 133 µM | > 133 µM | > 133 µM | > 133 µM
CCN(CC)CCNC(=O)c1ccc(NC(C)=O)cc1 [ACECAINIDE] | > 133 µM | > 133 µM | > 133 µM | > 133 µM
CC[C@H](C)C(=O)O[C@H]1CCC=C2C=C[C@H](C)[C@H](CC[C@@H]3C[C@@H](O)CC(=O)O3)[C@H]21 [MEVASTATIN] | 27 µM | > 133 µM | > 133 µM | > 133 µM
CCOc1ccc(NC(C)=O)cc1 [PHENACETIN] | > 133 µM | > 133 µM | > 133 µM | > 133 µM
COc1ccc2cc1Oc1cc3c(cc1OC)CC[N+](C)(C)[C@H]3Cc1ccc(cc1)Oc1c(OC)c(OC)cc3c1[C@@H](C2)[N+](C)(C)CC3 [METOCURINE] | > 133 µM | > 133 µM | > 133 µM | > 133 µM
Cc1cn([C@H]2C[C@H](N=[N+]=[N-])[C@@H](CO)O2)c(=O)[nH]c1=O [ZIDOVUDINE] | > 133 µM | > 133 µM | > 133 µM | > 133 µM
CCOC(=O)O[C@]1(C(=O)OCCl)CC[C@H]2[C@@H]3CCC4=CC(=O)C=C[C@]4(C)[C@H]3[C@@H](O)C[C@@]21C [LOTEPREDNOL ETABONATE] | 40.4 µM | > 133 µM | 15.5 µM | > 133 µM
NCC(CC(=O)O)c1ccc(Cl)cc1 (stereo unspecified) [BACLOFEN] | > 133 µM | > 133 µM | > 133 µM | > 133 µM
CCN1CCC[C@H]1CNC(=O)c1c(OC)ccc(Br)c1OC [REMOXIPRIDE] | > 133 µM | > 133 µM | > 133 µM | > 133 µM
CN(C/C=C/C#CC(C)(C)C)Cc1cccc2ccccc12 [TERBINAFINE HYDROCHLORIDE] | > 133 µM | > 133 µM | > 133 µM | > 133 µM
COc1c(N2C[C@@H]3CCCN[C@@H]3C2)c(F)cc2c(=O)c(C(=O)O)cn(C3CC3)c12 [MOXIFLOXACIN HYDROCHLORIDE] | > 133 µM | > 133 µM | > 133 µM | > 133 µM
CN(C)CCCN1c2ccccc2Sc2ccc(Cl)cc21 [CHLORPROMAZINE] | > 133 µM | > 133 µM | > 133 µM | > 133 µM
O=NN(CCCl)C(=O)NCCCl [CARMUSTINE] | > 133 µM | > 133 µM | > 133 µM | > 133 µM
CNCC[C@H](Oc1cccc2ccccc12)c1cccs1 [DULOXETINE HYDROCHLORIDE] | > 133 µM | > 133 µM | > 133 µM | > 133 µM
Cc1cccc(Nc2ccccc2C(=O)O)c1C [MEFENAMIC ACID] | > 133 µM | > 133 µM | > 133 µM | > 133 µM

Structure (SMILES) | IC50 [1] | IC50 [2] | IC50 [3] | IC50 [4]
CC(=O)Nc1ccc(/C=N/NC(N)=S)cc1 [AMITHIOZONE] | > 133 µM | > 133 µM | > 133 µM | > 133 µM
CN(C(=O)c1c(O)c2ccccc2n(C)c1=O)c1ccccc1 [ROQUINIMEX] | > 133 µM | > 133 µM | > 133 µM | > 133 µM
CN1CCC(=C2c3ccccc3CC(=O)c3sccc32)CC1 [KETOTIFEN FUMARATE] | > 133 µM | > 133 µM | > 133 µM | > 133 µM
O=C(O)CCCc1ccc(N(CCCl)CCCl)cc1 [CHLORAMBUCIL] | > 133 µM | > 133 µM | > 133 µM | > 133 µM
Cc1onc(-c2ccccc2)c1C(=O)N[C@@H]1C(=O)N2[C@@H]1SC(C)(C)[C@@H]2C(=O)O | > 133 µM | > 133 µM | > 133 µM | > 133 µM
C[C@]12CC[C@H]3[C@@H](CC[C@@]45O[C@@H]4C(O)=C(C#N)C[C@]35C)[C@@H]1CC[C@@H]2O [TRILOSTANE] | > 133 µM | > 133 µM | > 133 µM | > 133 µM
C[C@@H]1C[C@H]2[C@@H]3CCC4=CC(=O)C=C[C@]4(C)[C@@]3(F)[C@@H](O)C[C@]2(C)[C@@]1(O)C(=O)CO [DEXAMETHASONE] | > 133 µM | > 133 µM | > 133 µM | > 133 µM
CC(=O)SCC(Cc1ccccc1)C(=O)NCC(=O)OCc1ccccc1 (stereo unspecified) [RACECADOTRIL] | 20.3 µM | > 133 µM | 99 µM | > 133 µM
C[C@H]1COc2c(C3(N)CC3)c(F)cc3c(=O)c(C(=O)O)cn1c23 [PAZUFLOXACIN] | > 133 µM | > 133 µM | > 133 µM | > 133 µM
O=C1NCCN1CCN1CCC(c2cn(-c3ccc(F)cc3)c3ccc(Cl)cc23)CC1 [SERTINDOLE] | 82.7 µM | > 133 µM | > 133 µM | > 133 µM
Cc1cc2c(s1)Nc1ccccc1N=C2N1CCN(C)CC1 [OLANZAPINE] | > 133 µM | > 133 µM | > 133 µM | > 133 µM
O=C1OC(OC(=O)c2cccnc2Nc2cccc(C(F)(F)F)c2)c2ccccc21 (stereo unspecified) [TALNIFLUMATE] | > 133 µM | > 133 µM | > 133 µM | > 133 µM
CCOC(=O)C1=C[C@@H](OC(CC)CC)[C@H](NC(C)=O)[C@@H](N)C1 [OSELTAMIVIR PHOSPHATE] | > 133 µM | > 133 µM | > 133 µM | > 133 µM
O=C1CN=C(c2ccccc2)c2cc([N+](=O)[O-])ccc2N1 [NITRAZEPAM] | > 133 µM | > 133 µM | > 133 µM | > 133 µM
c1ccc(-c2ccc(C(c3ccccc3)n3ccnc3)cc2)cc1 (stereo unspecified) [BIFONAZOLE] | 27.1 µM | > 133 µM | > 133 µM | > 133 µM
C=C[C@H]1C[N@@]2CC[C@H]1C[C@H]2[C@H](O)c1ccnc2ccc(OC)cc12 [QUININE] | > 133 µM | > 133 µM | > 133 µM | > 133 µM
CN1CCc2cccc3c2[C@H]1Cc1ccc(O)c(O)c1-3 [APOMORPHINE] | > 133 µM | > 133 µM | > 133 µM | > 133 µM
CN(C)CCC=C1c2ccccc2CCc2ccccc21 [AMITRIPTYLINE] | > 133 µM | > 133 µM | > 133 µM | > 133 µM
O=C1Nc2ccc(Cl)cc2[C@@](C#CC2CC2)(C(F)(F)F)O1 [EFAVIRENZ] | > 133 µM | > 133 µM | > 133 µM | > 133 µM
